Reference: the CheMixHub viscosity set

Assay: xn = mol fraction of the nth substance listed

COCCO + OCCO
viscosity [mPa·s], 101 kPa
Conditions | x2 = 0.1359 | x2 = 0.2614 | x2 = 0.3776 | x2 = 0.4859 | x2 = 0.5861 | x2 = 0.6799 | x2 = 0.7676 | x2 = 0.8499 | x2 = 0.9272
293.15 K | 2.281 | 3.192 | 3.871 | 5.319 | 6.607 | 8.77 | 10.8 | 14 | 17.35
298.15 K | 2.034 | 2.799 | 3.383 | 4.577 | 5.633 | 7.281 | 9.021 | 11.5 | 14.18
303.15 K | 1.826 | 2.471 | 2.981 | 3.965 | 4.84 | 6.282 | 7.583 | 9.579 | 11.66
308.15 K | 1.652 | 2.2 | 2.644 | 3.468 | 4.194 | 5.372 | 6.436 | 8.035 | 9.727
313.15 K | 1.494 | 1.97 | 2.364 | 3.051 | 3.663 | 4.643 | 5.522 | 6.84 | 8.193
318.15 K | 1.359 | 1.775 | 2.14 | 2.718 | 3.218 | 4.04 | 4.701 | 5.855 | 6.98
323.15 K | 1.241 | 1.604 | 1.938 | 2.399 | 2.851 | 3.547 | 4.102 | 5.049 | 5.979

CCCC[N+](CCCC)(CCCC)Cc1ccccc1.[Cl-] + OCCOCCO
Conditions | viscosity [mPa·s]
293.15 K, 100 kPa, x1 = 0.25 | 433.5

CC(=O)OC(C)C + c1ccccc1
308.15 K, 101 kPa
Conditions | viscosity [mPa·s]
x2 = 0.0634 | 0.4362
x2 = 0.2053 | 0.4409
x2 = 0.3085 | 0.4455
x2 = 0.4037 | 0.4502
x2 = 0.5044 | 0.4564
x2 = 0.6051 | 0.4587
x2 = 0.6985 | 0.4735
x2 = 0.8005 | 0.4854
x2 = 0.9366 | 0.502

CC(O)=S + c1ccccc1
298.1 K, 101 kPa
Conditions | viscosity [mPa·s]
x1 = 0.2 | 0.584
x1 = 0.4 | 0.584
x1 = 0.5 | 0.589
x1 = 0.6 | 0.599
x1 = 0.8 | 0.631

CCCC(=O)O + c1ccccc1
298.15 K, 101 kPa
Conditions | viscosity [mPa·s]
x1 = 0.04 | 0.612
x1 = 0.09 | 0.624
x1 = 0.14 | 0.639
x1 = 0.18 | 0.656
x1 = 0.37 | 0.747
x1 = 0.47 | 0.808
x1 = 0.57 | 0.903
x1 = 0.78 | 1.1

CCCCBr + c1ccccc1
101 kPa
Conditions | viscosity [mPa·s]
298.15 K, x1 = 0.066 | 0.588
298.15 K, x1 = 0.1 | 0.583
298.15 K, x1 = 0.134 | 0.574
308.15 K, x1 = 0.066 | 0.518
308.15 K, x1 = 0.1 | 0.515
308.15 K, x1 = 0.134 | 0.51
308.15 K, x2 = 0.094 | 0.5122
308.15 K, x2 = 0.2084 | 0.5022
308.15 K, x2 = 0.2997 | 0.4939
308.15 K, x2 = 0.395 | 0.4879
308.15 K, x2 = 0.5053 | 0.4828
308.15 K, x2 = 0.5954 | 0.4805
308.15 K, x2 = 0.6993 | 0.4823
308.15 K, x2 = 0.8012 | 0.4853
308.15 K, x2 = 0.9023 | 0.4943
318.15 K, x1 = 0.066 | 0.459
318.15 K, x1 = 0.1 | 0.457
318.15 K, x1 = 0.134 | 0.454
323.15 K, x1 = 0.066 | 0.432
323.15 K, x1 = 0.1 | 0.431
323.15 K, x1 = 0.134 | 0.428

CCCCNCCCC + c1ccccc1
viscosity [mPa·s], 101 kPa
Conditions | x1 = 0.01077 | x1 = 0.02009 | x1 = 0.02993 | x1 = 0.03893 | x1 = 0.04865 | x1 = 0.05929 | x1 = 0.06883 | x1 = 0.07963 | x1 = 0.08917
303.15 K | 0.5674 | 0.5699 | 0.5746 | 0.5771 | 0.5809 | 0.584 | 0.5864 | 0.5907 | 0.5931
313.15 K | 0.4959 | 0.4998 | 0.503 | 0.5067 | 0.511 | 0.5134 | 0.515 | 0.5177 | 0.5198

CCOC(=O)C(=O)OCC + c1ccccc1
303.15 K, 101 kPa
Conditions | viscosity [mPa·s]
x1 = 0.0682 | 0.5918
x1 = 0.1415 | 0.6316
x1 = 0.2203 | 0.6727
x1 = 0.3054 | 0.7255
x1 = 0.3972 | 0.7942
x1 = 0.4972 | 0.8854
x1 = 0.6066 | 1.009
x1 = 0.7258 | 1.164
x1 = 0.8557 | 1.374

COCCO + c1ccccc1
viscosity [mPa·s]
Conditions | 298.15 K | 303.15 K | 308.15 K
101 kPa, x1 = 0.0543 | 0.624 | – | 0.541
101 kPa, x1 = 0.1499 | 0.669 | – | 0.571
101 kPa, x1 = 0.2235 | 0.708 | – | 0.598
101 kPa, x1 = 0.3508 | 0.788 | – | 0.654
101 kPa, x1 = 0.4496 | 0.862 | – | 0.707
101 kPa, x1 = 0.4961 | 0.902 | – | 0.735
101 kPa, x1 = 0.5462 | 0.947 | – | 0.768
101 kPa, x1 = 0.6455 | 1.049 | – | 0.842
101 kPa, x1 = 0.7524 | 1.18 | – | 0.938
101 kPa, x1 = 0.8509 | 1.323 | – | 1.043
101 kPa, x1 = 0.9558 | 1.505 | – | 1.177
101.33 kPa, x1 = 0.1174 | – | 0.599 | –
101.33 kPa, x1 = 0.1933 | – | 0.628 | –
101.33 kPa, x1 = 0.2642 | – | 0.659 | –
101.33 kPa, x1 = 0.3837 | – | 0.728 | –
101.33 kPa, x1 = 0.4988 | – | 0.807 | –
101.33 kPa, x1 = 0.654 | – | 0.945 | –
101.33 kPa, x1 = 0.7474 | – | 1.049 | –
101.33 kPa, x1 = 0.843 | – | 1.188 | –
101.33 kPa, x1 = 0.8998 | – | 1.246 | –

CCCC(=O)O + c1ccncc1
293.15 K, 101 kPa
Conditions | viscosity [mPa·s]
x2 = 0.152 | 3.474
x2 = 0.256 | 3.89
x2 = 0.429 | 3.36
x2 = 0.528 | 2.674
x2 = 0.642 | 1.996
x2 = 0.818 | 1.29
